pIC50: −log10 of the molar value. Converted amounts (≈) assume the structure as drawn. Like-named read-outs stand apart in the source and are kept apart here.

Experiment [1] deals with PC-3 prostate cancer cells. The experiment in a line: Example T: sensitisation of PC-3 cells to doxorubicin, oxaliplatin, paclitaxel or vincristine, Wst1. The class given is cell-based, human. As to conditions: PC-3 cells, 72 hours; for viability at 0.4 µM: compound 0.4 μM alone; for Doxorubicin 3.5 μM: percent cell survival / Oxaliplatin 100 μM: percent cell survival / Paclitaxel 50 μM: percent cell survival / Vincristine 100 nM: percent cell survival: chemotherapy agent alone normalized to 100%.

The subject of experiment [2] is Cryptococcus neoformans (serotype D). Put plainly: Example K: Cryptococcus neoformans (serotype D) growth inhibition. As to conditions: Cryptococcus deneoformans; for pIC50: read-out: IC50 (concentration for 50% of inhibition); for MIC: read-out: MIC (concentration for maximum-99% of inhibition). The class given is cell-based.
For experiment [3], the system named is S. cerevisiae. Put plainly: Example I: Saccharomyces cerevisiae growth inhibition (OD 600 nm). The class given is cell-based. The settings on record: Saccharomyces cerevisiae, 18 hour incubation at 30° C., OD 600 nm, XLfit; for IC50: read-out: IC50, uM (50% inhibition of fungal growth); for MIC: read-out: MIC, uM (99% of inhibition of fungal growth).
Experiment [4] concerns Candida albicans strain 3153. Put plainly: Example H: Candida albicans growth inhibition (OD 600 nm). The class given is cell-based. The settings on record: for MIC: Candida albicans, 3153, 24 hrs at 30° C., YPD, XLfit, read-out: MIC (uM) (99% of inhibition of fungal growth); for IC50: Candida albicans, 3153, read-out: IC50 (uM) (50% inhibition of fungal growth), 24 hrs at 30° C., YPD, XLfit. Summed up:
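Growth inhibition computed as % versus DMSO control from OD600 after ~24 h at 30° C. Inoculum: washed overnight YPD culture of strain 3153 at 3.5×10^4 CFU/ml in YPD; final compound concentrations 0, 5, 10, 16, 22, 30, 40 μM, duplicate wells.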

[5] abbreviates: Homo sapiens, Wst1, vehicle = 100, read-out: No Chemo: percent cell survival.
Setting [6] is: compound 0.4 μM + doxorubicin 3.5 μM.
Where [7] appears, read: compound 0.4 μM + oxaliplatin 100 μM.
[8] abbreviates: compound 0.4 μM + paclitaxel 50 μM.
[9] abbreviates: compound 0.4 μM + vincristine 100 nM.
Setting [10] is: OD of 48 hour reading, 37° C., tested 4 to 60 μM, XLfit.

As to `CCCCCCOc1cccc(OCCCNc2ccnc3ccccc23)c1` [AZ, N-{3-[3-(Hexyloxy)phenoxy]propyl}quinolin-4-amine], in experiment [1] (setting [5]), the viability at 0.4 µM worked out at 95.4%. The “Doxorubicin 3.5 μM: percent cell survival” value in experiment [1] (setting [6]) turned out to be 33.6%. Further, the “Oxaliplatin 100 μM: percent cell survival” value in experiment [1] (setting [7]) was determined as 26.9%. For the same molecule, the “Paclitaxel 50 μM: percent cell survival” value in experiment [1] (setting [8]) was 54.1%. Besides, the “Vincristine 100 nM: percent cell survival” value in experiment [1] (setting [9]) is on record as 71.2%. For the same molecule, in experiment [2] (setting [10]), the pIC50 is 5.70 and the MIC was 15.8 µM (≈ 5.99 µg/mL). Further, in experiment [3], the IC50 was found to be 18.6 µM and the MIC stood at 24.1 µM (≈ 9.11 µg/mL). For the same molecule, in experiment [4], the MIC is 21.1 µM (≈ 7.99 µg/mL) and the half-maximal inhibitory concentration (IC50) turned out to be 10.4 µM.
Regarding `Cc1cccc(OCCCCCCCCNc2ccnc3ccccc23)c1` [BE, N-[8-(m-Tolyloxy)octyl]quinolin-4-amine], in experiment [1] (setting [5]), the viability at 0.4 µM is 99.1%. In experiment [1] (setting [6]), the “Doxorubicin 3.5 μM: percent cell survival” value was 44.1%. Further, the “Oxaliplatin 100 μM: percent cell survival” value in experiment [1] (setting [7]) is recorded as 41.2%. In experiment [1] (setting [8]), the “Paclitaxel 50 μM: percent cell survival” value is 64%. For the same molecule, the “Vincristine 100 nM: percent cell survival” value in experiment [1] (setting [9]) is on record as 74.9%. The pIC50 in experiment [2] (setting [10]) is 5.46. For the same molecule, the MIC in experiment [2] (setting [10]) worked out at 13.2 µM (≈ 4.77 µg/mL); in experiment [3] it was 24.1 µM (≈ 8.75 µg/mL); in experiment [4], 29.7 µM (≈ 10.8 µg/mL). The figures for the IC50 in experiment [3] and in experiment [4] were 19.2 µM and 12.2 µM, respectively.
For the molecule `Cc1ccccc1OCCCCCCCCNc1ccnc2ccccc12` [BG, N-[8-(o-Tolyloxy)octyl]quinolin-4-amine], the viability at 0.4 µM in experiment [1] (setting [5]) is 99.1%. Also, the “Doxorubicin 3.5 μM: percent cell survival” value in experiment [1] (setting [6]) came out at 40.1%. Also, the “Oxaliplatin 100 μM: percent cell survival” value in experiment [1] (setting [7]) was 36.2%. Further, in experiment [1] (setting [8]), the “Paclitaxel 50 μM: percent cell survival” value came out at 59.2%. The “Vincristine 100 nM: percent cell survival” value in experiment [1] (setting [9]) is given as 71.1%. Further, the pIC50 in experiment [2] (setting [10]) is 5.67. Besides, the results for the MIC in experiment [2] (setting [10]), in experiment [3] and in experiment [4] were 12.5 µM (≈ 4.55 µg/mL), 11.8 µM (≈ 4.29 µg/mL) and 20.9 µM (≈ 7.56 µg/mL), respectively. Also, the half-maximal inhibitory concentration (IC50) is 9.88 µM in experiment [3] and 11.5 µM in experiment [4].
As for `Fc1cccc(OCCCCCCCCNc2ccnc3ccccc23)c1` [BI, N-[8-(3-Fluorophenoxy)octyl]quinolin-4-amine], in experiment [1] (setting [5]), the viability at 0.4 µM was 111%. Also, in experiment [1] (setting [6]), the “Doxorubicin 3.5 μM: percent cell survival” value was 76.6%. Also, in experiment [1] (setting [7]), the “Oxaliplatin 100 μM: percent cell survival” value is listed as 84.3%. Also, in experiment [1] (setting [8]), the “Paclitaxel 50 μM: percent cell survival” value stood at 71.7%. Further, the “Vincristine 100 nM: percent cell survival” value in experiment [1] (setting [9]) is 81.7%. Also, in experiment [2] (setting [10]), the pIC50 was 5.65 and the MIC was 19.6 µM (≈ 7.17 µg/mL). Further, in experiment [3], the IC50 was 28.6 µM and the MIC was 47.1 µM (≈ 17.3 µg/mL). In experiment [4], the MIC stood at 27.8 µM (≈ 10.2 µg/mL) and the IC50 turned out to be 17.5 µM.
On to `Fc1ccc(OCCCCCCCCNc2ccnc3ccccc23)cc1` [BJ, N-[8-(4-Fluorophenoxy)octyl]quinolin-4-amine], for which the viability at 0.4 µM in experiment [1] (setting [5]) worked out at 23.9%. In experiment [1] (setting [6]), the “Doxorubicin 3.5 μM: percent cell survival” value stood at 56.8%. Also, the “Oxaliplatin 100 μM: percent cell survival” value in experiment [1] (setting [7]) is listed as 64.1%. For the same molecule, the “Paclitaxel 50 μM: percent cell survival” value in experiment [1] (setting [8]) worked out at 50.2%. Besides, in experiment [1] (setting [9]), the “Vincristine 100 nM: percent cell survival” value worked out at 50.8%. Besides, in experiment [2] (setting [10]), the pIC50 was 5.73 and the MIC worked out at 18.5 µM (≈ 6.79 µg/mL). Moreover, in experiment [3], the IC50 was determined as 21.4 µM and the MIC came out at 37.8 µM (≈ 13.9 µg/mL). In addition, in experiment [4], the MIC came to 23.5 µM (≈ 8.6 µg/mL) and the half-inhibitory concentration (IC50) was determined as 13.3 µM.
Take `CCCCCCOc1ccc(CNc2ccnc3ccccc23)cc1F` [BK, N-[3-Fluoro-4-(hexyloxy)benzyl]quinolin-4-amine]: the viability at 0.4 µM in experiment [1] (setting [5]) came to 29.2%. Moreover, the “Doxorubicin 3.5 μM: percent cell survival” value in experiment [1] (setting [6]) came out at 32.1%. In addition, the “Oxaliplatin 100 μM: percent cell survival” value in experiment [1] (setting [7]) turned out to be 27.3%. Moreover, the “Paclitaxel 50 μM: percent cell survival” value in experiment [1] (setting [8]) turned out to be 20.6%. Moreover, in experiment [1] (setting [9]), the “Vincristine 100 nM: percent cell survival” value is given as 28.3%. Also, in experiment [2] (setting [10]), the pIC50 was 5.61 and the MIC is 16.5 µM (≈ 5.82 µg/mL). Moreover, in experiment [3], the IC50 was 21.4 µM and the MIC was 29.4 µM (≈ 10.4 µg/mL). Moreover, in experiment [4], the MIC was determined as 19 µM (≈ 6.71 µg/mL) and the half-maximal inhibitory concentration (IC50) came out at 11.2 µM.
`CCCCCCOc1cccc(CNc2ccnc3ccccc23)c1` [Compound AC, N-[3-(Hexyloxy)benzyl]quinolin-4-amine]: the viability at 0.4 µM in experiment [1] (setting [5]) was determined as 61.5%. Further, the “Doxorubicin 3.5 μM: percent cell survival” value in experiment [1] (setting [6]) is on record as 32.8%. In addition, the “Oxaliplatin 100 μM: percent cell survival” value in experiment [1] (setting [7]) is listed as 30%. The “Paclitaxel 50 μM: percent cell survival” value in experiment [1] (setting [8]) stood at 14%. Also, in experiment [1] (setting [9]), the “Vincristine 100 nM: percent cell survival” value stood at 34.1%. Moreover, in experiment [2] (48 h), the pIC50 is 5.47. Moreover, the MIC in experiment [2] (setting [10]) was 19.4 µM (≈ 6.49 µg/mL); in experiment [3] it was 47.7 µM (≈ 15.9 µg/mL); in experiment [4], 108 µM (≈ 36 µg/mL). For the same molecule, the figures for the half-maximal inhibitory concentration (IC50) in experiment [3] and in experiment [4] were 27.7 µM and 45.7 µM, respectively.
Take `CCCCCCCCCCNc1ccnc2ccccc12` [Compound AG, N-(Decyl)quinolin-4-amine]: in experiment [1] (Homo sapiens, compound 2.5 μM alone, Wst1, vehicle = 100, read-out: No Chemo: percent cell survival), the viability at 2.5 µM stood at 18.4%. The “Doxorubicin 3.5 μM: percent cell survival” value in experiment [1] (compound 2.5 μM + doxorubicin 3.5 μM) came out at 21.1%. In addition, the “Oxaliplatin 100 μM: percent cell survival” value in experiment [1] (compound 2.5 μM + oxaliplatin 100 μM) turned out to be 27.1%. In addition, the “Paclitaxel 50 μM: percent cell survival” value in experiment [1] (compound 2.5 μM + paclitaxel 50 μM) was determined as 21.8%. Moreover, in experiment [1] (compound 2.5 μM + vincristine 100 nM), the “Vincristine 100 nM: percent cell survival” value amounted to 17.1%. Also, in experiment [2] (setting [10]), the pIC50 was 5.75. The MIC in experiment [2] (setting [10]) came out at 17.6 µM (≈ 4.99 µg/mL); in experiment [3], 24.4 µM (≈ 6.93 µg/mL); in experiment [4] it was 16 µM (≈ 4.55 µg/mL). The results for the IC50 in experiment [3] and in experiment [4] were 19.4 µM and 8.92 µM, respectively.
Regarding `CCCCCCOCCCCCCCCCCNc1ccnc2ccccc12` [Compound AL, N-[10-(Hexyloxy)decyl]quinolin-4-amine], the viability at 0.4 µM in experiment [1] (setting [5]) was determined as 61.6%. The “Doxorubicin 3.5 μM: percent cell survival” value in experiment [1] (setting [6]) was 21.9%. In experiment [1] (setting [7]), the “Oxaliplatin 100 μM: percent cell survival” value is 21.9%. Also, in experiment [1] (setting [8]), the “Paclitaxel 50 μM: percent cell survival” value is 51.8%. In addition, the “Vincristine 100 nM: percent cell survival” value in experiment [1] (setting [9]) amounted to 28.1%. In experiment [2] (setting [10]), the pIC50 was 5.73 and the MIC was determined as 11.5 µM (≈ 4.44 µg/mL). In experiment [3], the IC50 came out at 9.67 µM and the MIC came to 10.5 µM (≈ 4.03 µg/mL). In experiment [4], the MIC is 20.1 µM (≈ 7.72 µg/mL) and the IC50 is 7.08 µM.
On to `CCCCCCOCCCCCCCCNc1ccnc2c(Cl)cccc12` [Compound AX, 8-Chloro-N-[8-(hexyloxy)octyl]quinolin-4-amine], for which, in experiment [1] (setting [5]), the viability at 0.4 µM was determined as 31.2%. Also, the “Doxorubicin 3.5 μM: percent cell survival” value in experiment [1] (setting [6]) is listed as 57.9%. Further, the “Oxaliplatin 100 μM: percent cell survival” value in experiment [1] (setting [7]) is 49.5%. Besides, in experiment [1] (setting [8]), the “Paclitaxel 50 μM: percent cell survival” value was determined as 26.7%. The “Vincristine 100 nM: percent cell survival” value in experiment [1] (setting [9]) turned out to be 31.5%. In experiment [2] (setting [10]), the pIC50 was 5.97 and the MIC came out at 10.6 µM (≈ 4.13 µg/mL). For the same molecule, in experiment [3], the IC50 came to 19.6 µM and the MIC came to 19.9 µM (≈ 7.79 µg/mL). In experiment [4], the MIC was 26.6 µM (≈ 10.4 µg/mL) and the IC50 came to 11.2 µM.

The values above are taken from US20250034139A1, “AMINE COMPOUNDS HAVING ANTI-INFLAMMATORY, ANTIFUNGAL, ANTIPARASITIC, AND ANTICANCER ACTIVITY” (PHARMA CINQ, LLC, priority 2013, published 2025).
